From ChEMBL document CHEMBL6153174, “Design and Synthesis of Novel Deazapurine DNMT 1 Inhibitors with In Vivo Efficacy in DLBCL” (J Med Chem, 2025) come the findings set out here.

Bounds are passed on as bounds.

T3 sequence (P26358 whole entry): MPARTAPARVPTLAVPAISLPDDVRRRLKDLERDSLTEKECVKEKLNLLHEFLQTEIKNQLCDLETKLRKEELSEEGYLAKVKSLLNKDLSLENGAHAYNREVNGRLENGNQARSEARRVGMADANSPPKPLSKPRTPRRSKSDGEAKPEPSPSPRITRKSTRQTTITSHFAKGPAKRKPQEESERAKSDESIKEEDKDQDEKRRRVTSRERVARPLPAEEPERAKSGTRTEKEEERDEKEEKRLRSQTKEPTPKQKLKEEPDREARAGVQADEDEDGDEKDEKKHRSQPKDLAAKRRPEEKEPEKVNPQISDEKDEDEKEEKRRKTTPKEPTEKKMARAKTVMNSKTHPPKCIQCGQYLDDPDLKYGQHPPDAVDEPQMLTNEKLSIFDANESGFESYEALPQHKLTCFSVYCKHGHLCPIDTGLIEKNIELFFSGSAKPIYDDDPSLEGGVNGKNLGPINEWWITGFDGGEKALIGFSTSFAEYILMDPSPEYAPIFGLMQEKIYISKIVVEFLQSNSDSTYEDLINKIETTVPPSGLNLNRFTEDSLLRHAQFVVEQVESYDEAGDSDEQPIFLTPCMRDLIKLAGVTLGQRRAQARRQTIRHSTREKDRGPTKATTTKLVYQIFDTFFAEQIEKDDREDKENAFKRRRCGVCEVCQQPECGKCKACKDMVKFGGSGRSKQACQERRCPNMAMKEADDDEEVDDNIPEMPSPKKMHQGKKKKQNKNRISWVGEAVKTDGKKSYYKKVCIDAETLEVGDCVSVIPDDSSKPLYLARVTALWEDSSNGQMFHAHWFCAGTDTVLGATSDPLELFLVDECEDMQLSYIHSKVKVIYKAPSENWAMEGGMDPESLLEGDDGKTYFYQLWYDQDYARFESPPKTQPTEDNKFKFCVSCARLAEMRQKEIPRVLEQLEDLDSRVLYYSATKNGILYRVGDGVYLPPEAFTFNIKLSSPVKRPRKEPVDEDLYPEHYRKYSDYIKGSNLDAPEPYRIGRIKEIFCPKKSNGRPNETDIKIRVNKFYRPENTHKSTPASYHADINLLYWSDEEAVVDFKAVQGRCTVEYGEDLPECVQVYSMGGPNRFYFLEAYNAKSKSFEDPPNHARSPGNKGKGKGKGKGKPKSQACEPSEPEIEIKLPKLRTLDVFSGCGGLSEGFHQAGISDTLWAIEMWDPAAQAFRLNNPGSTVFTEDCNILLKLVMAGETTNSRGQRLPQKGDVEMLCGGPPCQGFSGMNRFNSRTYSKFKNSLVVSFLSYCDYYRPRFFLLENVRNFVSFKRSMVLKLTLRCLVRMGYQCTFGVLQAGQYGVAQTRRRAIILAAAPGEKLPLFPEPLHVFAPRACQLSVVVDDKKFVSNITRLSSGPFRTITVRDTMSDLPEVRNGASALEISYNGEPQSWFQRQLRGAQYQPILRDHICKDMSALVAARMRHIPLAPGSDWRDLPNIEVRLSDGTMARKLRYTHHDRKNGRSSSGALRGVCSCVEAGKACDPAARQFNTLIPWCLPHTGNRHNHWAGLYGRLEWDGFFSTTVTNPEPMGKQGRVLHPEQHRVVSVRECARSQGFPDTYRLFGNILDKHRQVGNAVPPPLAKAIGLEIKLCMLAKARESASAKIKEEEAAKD

The first assay deals with T1, Histone-lysine N-methyltransferase EHMT2 (Homo sapiens) (UniProt Q96KQ7).
T1 sequence (whole entry): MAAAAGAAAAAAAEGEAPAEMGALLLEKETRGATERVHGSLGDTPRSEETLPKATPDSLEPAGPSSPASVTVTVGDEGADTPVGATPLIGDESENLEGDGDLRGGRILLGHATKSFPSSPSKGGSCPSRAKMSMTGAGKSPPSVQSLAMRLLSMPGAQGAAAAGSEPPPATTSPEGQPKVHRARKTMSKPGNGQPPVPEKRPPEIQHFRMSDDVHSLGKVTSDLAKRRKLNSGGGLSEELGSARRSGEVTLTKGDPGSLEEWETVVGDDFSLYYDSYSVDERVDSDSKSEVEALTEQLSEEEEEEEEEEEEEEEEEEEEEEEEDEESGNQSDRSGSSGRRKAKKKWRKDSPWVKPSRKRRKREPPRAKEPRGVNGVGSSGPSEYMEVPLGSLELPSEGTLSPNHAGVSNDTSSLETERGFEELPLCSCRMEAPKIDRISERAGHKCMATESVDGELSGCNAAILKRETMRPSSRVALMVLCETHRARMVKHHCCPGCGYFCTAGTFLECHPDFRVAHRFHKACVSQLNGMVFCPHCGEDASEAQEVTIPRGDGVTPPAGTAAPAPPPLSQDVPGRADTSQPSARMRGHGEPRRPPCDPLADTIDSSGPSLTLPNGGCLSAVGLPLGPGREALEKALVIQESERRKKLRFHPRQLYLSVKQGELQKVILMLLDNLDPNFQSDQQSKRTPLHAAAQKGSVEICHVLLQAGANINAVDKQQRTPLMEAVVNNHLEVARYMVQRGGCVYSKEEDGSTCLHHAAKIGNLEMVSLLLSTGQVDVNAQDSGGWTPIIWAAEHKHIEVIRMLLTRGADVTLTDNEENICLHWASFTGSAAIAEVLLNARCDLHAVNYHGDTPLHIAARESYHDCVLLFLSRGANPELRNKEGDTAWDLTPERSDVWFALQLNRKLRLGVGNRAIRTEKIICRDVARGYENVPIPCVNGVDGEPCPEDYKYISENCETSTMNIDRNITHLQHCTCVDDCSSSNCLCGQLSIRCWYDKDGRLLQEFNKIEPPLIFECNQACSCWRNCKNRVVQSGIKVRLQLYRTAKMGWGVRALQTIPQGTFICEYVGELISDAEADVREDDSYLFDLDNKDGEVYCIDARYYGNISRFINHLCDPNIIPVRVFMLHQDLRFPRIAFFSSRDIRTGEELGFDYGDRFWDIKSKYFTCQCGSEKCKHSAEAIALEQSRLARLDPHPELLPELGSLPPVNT
As to the kind of experiment: Inhibition of G9a (unknown origin) at 5 uM preincubated for 15 mins followed by substrate and [3H-SAM] addition and measured after 60 mins by microbeta analysis relative to control. Particulars: time 75.0 min.
The term inhibition denotes the change of the read-out against control, counted positive when it falls. Regarding `CN1CCC(Nc2nc(-c3ccc(F)cc3)nc3c2ccn3CCCN2CCCC2)CC1`, the inhibition turned out to be 0.3%.

`CN1CCC(Nc2nc(-c3ccc(N)nc3)nc3c2ccn3CCCN2CCCC2)CC1`: the inhibition was -1.1%.

For `CC(C)N1CCC(Nc2nc(-c3cn[nH]c3)nc3c2ncn3CCCN2CCCC2)CC1`, the inhibition was -2.4%.

As to `Cc1ccc(-c2nc(NC3CCN(C)CC3)c3ccn(CCCN4CCCC4)c3n2)o1`, the inhibition was found to be 7.2%.

The subject of a further assay is MV4-11. The assay is described as follows: Antiproliferative activity against human MV4-11 cells assessed as inhibition of cell viability measured after 72 hrs by MTT assay. It counts as functional, cell-based. Particulars: MV4-11, 72 h.
A word on the IC50: it is the point on the concentration scale where inhibition reaches its midpoint. In the case of `CN1CCC(Nc2nc(-c3ccc(F)cc3)nc3c2ccn3CCCN2CCCC2)CC1`, the IC50 was 1.66 µM.

For `CN1CCC(Nc2nc(-c3ccc(N)nc3)nc3c2ccn3CCCN2CCCC2)CC1`, the IC50 turned out to be 18.3 µM.

Take `CC(C)N1CCC(Nc2nc(-c3cn[nH]c3)nc3c2ncn3CCCN2CCCC2)CC1`: the half-maximal inhibitory concentration (IC50) was more than 100 µM.

Regarding `Cc1ccc(-c2nc(NC3CCN(C)CC3)c3ccn(CCCN4CCCC4)c3n2)o1`, the 50% inhibitory concentration (IC50) turned out to be 11.8 µM.

A further assay has as its system U-937. The assay is described as follows: Antiproliferative activity against human U-937 cells assessed as inhibition of cell viability measured after 72 hrs by MTT assay. The format is functional, cell-based. Particulars: U-937, 72 h.
`CN1CCC(Nc2nc(-c3ccc(F)cc3)nc3c2ccn3CCCN2CCCC2)CC1`: the IC50 stood at 2.45 µM.

In the case of `CN1CCC(Nc2nc(-c3ccc(N)nc3)nc3c2ccn3CCCN2CCCC2)CC1`, the IC50 was 26.8 µM.

On to `CC(C)N1CCC(Nc2nc(-c3cn[nH]c3)nc3c2ncn3CCCN2CCCC2)CC1`, for which the 50% inhibitory concentration (IC50) was more than 100 µM.

For the compound `Cc1ccc(-c2nc(NC3CCN(C)CC3)c3ccn(CCCN4CCCC4)c3n2)o1`, the half-maximal inhibitory concentration (IC50) amounted to 43.6 µM.

Another assay has as its target T2, DNA (cytosine-5)-methyltransferase 3B (Homo sapiens, UniProt Q9UBC3). The assay is described as follows: Inhibition of DNMT3B (unknown origin) at 5 uM preincubated for 15 mins followed by substrate and [3H-SAM] addition and measured after 60 mins by microbeta analysis relative to control. The conditions noted are these: time 75.0 min.
For `CN1CCC(Nc2nc(-c3ccc(F)cc3)nc3c2ccn3CCCN2CCCC2)CC1`, the inhibition is -6.6%.

Regarding `CN1CCC(Nc2nc(-c3ccc(N)nc3)nc3c2ccn3CCCN2CCCC2)CC1`, the inhibition was found to be 0.6%.

Turning to `CC(C)N1CCC(Nc2nc(-c3cn[nH]c3)nc3c2ncn3CCCN2CCCC2)CC1`, the inhibition is -5.5%.

As to `Cc1ccc(-c2nc(NC3CCN(C)CC3)c3ccn(CCCN4CCCC4)c3n2)o1`, the inhibition was -2.5%.

A further assay has as its target T3, DNA (cytosine-5)-methyltransferase 1 (Homo sapiens, UniProt P26358). The assay is described as follows: Inhibition of DNMT1 (unknown origin) preincubated for 15 mins followed by substrate and [3H-SAM] addition and measured after 60 mins by microbeta analysis.
Settings: not given
As for `CN1CCC(Nc2nc(-c3ccc(N)nc3)nc3c2ccn3CCCN2CCCC2)CC1`, the IC50 was found to be 1.62 µM.

The compound `CC(C)N1CCC(Nc2nc(-c3cn[nH]c3)nc3c2ncn3CCCN2CCCC2)CC1` displayed a half-inhibitory concentration (IC50) of 55.4 µM.

The next assay has as its target T2, DNA (cytosine-5)-methyltransferase 3B. As to the kind of experiment: Inhibition of DNMT3B (unknown origin) preincubated for 15 mins followed by substrate and [3H-SAM] addition and measured after 60 mins by microbeta analysis.
Settings: not given
In the case of `CN1CCC(Nc2nc(-c3ccc(F)cc3)nc3c2ccn3CCCN2CCCC2)CC1`, the IC50 worked out at 18.3 µM.

`CN1CCC(Nc2nc(-c3ccc(N)nc3)nc3c2ccn3CCCN2CCCC2)CC1` returned an IC50 of more than 20 µM.

Compound `Cc1ccc(-c2nc(NC3CCN(C)CC3)c3ccn(CCCN4CCCC4)c3n2)o1` yielded an IC50 of 14.6 µM.

For a further assay, the target named is T4, DNA (cytosine-5)-methyltransferase 3A (Homo sapiens, UniProt Q9Y6K1). As to the kind of experiment: Inhibition of DNMT3A (unknown origin) at 5 uM preincubated for 15 mins followed by substrate and [3H-SAM] addition and measured after 60 mins by microbeta analysis relative to control. The conditions noted are these: time 75.0 min.
T4 sequence (Q9Y6K1 whole entry, looked up): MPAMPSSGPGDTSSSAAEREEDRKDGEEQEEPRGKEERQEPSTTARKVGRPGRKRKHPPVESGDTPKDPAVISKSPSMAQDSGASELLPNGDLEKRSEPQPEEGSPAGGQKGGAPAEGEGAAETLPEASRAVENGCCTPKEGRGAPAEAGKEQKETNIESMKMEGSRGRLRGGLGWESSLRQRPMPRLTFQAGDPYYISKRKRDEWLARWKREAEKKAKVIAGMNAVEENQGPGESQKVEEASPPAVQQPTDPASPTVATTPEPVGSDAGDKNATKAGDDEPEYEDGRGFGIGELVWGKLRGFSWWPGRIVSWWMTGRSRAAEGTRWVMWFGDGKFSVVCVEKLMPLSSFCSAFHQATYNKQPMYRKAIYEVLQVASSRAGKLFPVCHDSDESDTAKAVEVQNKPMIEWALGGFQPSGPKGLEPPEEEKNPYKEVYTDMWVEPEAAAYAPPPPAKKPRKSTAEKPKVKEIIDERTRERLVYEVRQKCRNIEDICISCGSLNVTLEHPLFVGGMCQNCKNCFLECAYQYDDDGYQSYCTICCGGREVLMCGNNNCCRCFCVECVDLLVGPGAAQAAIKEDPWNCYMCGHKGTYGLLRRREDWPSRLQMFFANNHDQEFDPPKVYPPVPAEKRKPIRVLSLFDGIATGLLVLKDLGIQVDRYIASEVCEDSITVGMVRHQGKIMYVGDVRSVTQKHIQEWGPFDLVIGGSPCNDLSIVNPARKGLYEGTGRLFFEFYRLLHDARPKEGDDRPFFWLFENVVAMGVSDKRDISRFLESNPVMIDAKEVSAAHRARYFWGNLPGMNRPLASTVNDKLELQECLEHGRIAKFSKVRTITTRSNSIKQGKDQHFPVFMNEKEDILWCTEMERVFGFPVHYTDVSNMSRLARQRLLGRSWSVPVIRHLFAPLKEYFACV
As to `CN1CCC(Nc2nc(-c3ccc(F)cc3)nc3c2ccn3CCCN2CCCC2)CC1`, the inhibition was 13%.

On to `CN1CCC(Nc2nc(-c3ccc(N)nc3)nc3c2ccn3CCCN2CCCC2)CC1`, for which the inhibition was 17%.

`CC(C)N1CCC(Nc2nc(-c3cn[nH]c3)nc3c2ncn3CCCN2CCCC2)CC1`: the inhibition worked out at 8.6%.

Take `Cc1ccc(-c2nc(NC3CCN(C)CC3)c3ccn(CCCN4CCCC4)c3n2)o1`: the inhibition turned out to be 16.5%.

In a further assay the target is T5, Histone-lysine N-methyltransferase EHMT2 (Homo sapiens, UniProt Q96KQ7).
T5 sequence (Q96KQ7 whole entry): T1 sequence (whole entry)
As to the kind of experiment: Inhibition of G9a (unknown origin) preincubated for 15 mins followed by substrate and [3H-SAM] addition and measured after 60 mins by microbeta analysis.
Settings: not given
The compound `CN1CCC(Nc2nc(-c3ccc(N)nc3)nc3c2ccn3CCCN2CCCC2)CC1` yielded an IC50 of more than 20 µM.

In the next assay the target is T4, DNA (cytosine-5)-methyltransferase 3A. The assay is described as follows: Inhibition of DNMT3A (unknown origin) preincubated for 15 mins followed by substrate and [3H-SAM] addition and measured after 60 mins by microbeta analysis.
Settings: not given
In turn, `CN1CCC(Nc2nc(-c3ccc(F)cc3)nc3c2ccn3CCCN2CCCC2)CC1` had an IC50 of 4 µM.

As for `CN1CCC(Nc2nc(-c3ccc(N)nc3)nc3c2ccn3CCCN2CCCC2)CC1`, half-maximal inhibition (IC50) required 16.7 µM.

For the compound `Cc1ccc(-c2nc(NC3CCN(C)CC3)c3ccn(CCCN4CCCC4)c3n2)o1`, 7.95 µM corresponded to half-maximal inhibition (IC50).

A further assay deals with T3, DNA (cytosine-5)-methyltransferase 1. As to the kind of experiment: Inhibition of DNMT1 (unknown origin) at 5 uM preincubated for 15 mins followed by substrate and [3H-SAM] addition and measured after 60 mins by microbeta analysis relative to control. The conditions noted are these: time 75.0 min.
Consider `CN1CCC(Nc2nc(-c3ccc(F)cc3)nc3c2ccn3CCCN2CCCC2)CC1`, for which the inhibition is 63%.

Consider `CN1CCC(Nc2nc(-c3ccc(N)nc3)nc3c2ccn3CCCN2CCCC2)CC1`, for which the inhibition was found to be 52%.

In the case of `CC(C)N1CCC(Nc2nc(-c3cn[nH]c3)nc3c2ncn3CCCN2CCCC2)CC1`, the inhibition came out at 49%.

`Cc1ccc(-c2nc(NC3CCN(C)CC3)c3ccn(CCCN4CCCC4)c3n2)o1`: the inhibition came to 43%.
